US4338122A, “Biocidal 2-aryl-1,3-cyclopentanedione compounds and alkali metal and ammonium salts thereof” (Union Carbide Corporation, priority 1980, dated 1982)
≈ marks a conversion by molar mass, not a printed value.

How the values were obtained:
[1] = system: egg of the two-spotted mite (Tetranychus urticae (Koch)); assay: Mite Ovicide Test (egg); type: in vivo; parameters: key to Miticidal, Egg (control rating): A: Excellent Control; B: Partial Control; No Control; details: for Miticidal, Egg (control rating): Table I, unhatched/hatched eggs four days after spraying; for LC50: Tetranychus urticae, Table II, read-out: Miticidal LD50, Egg (ppm required for a 50 percent kill of eggs)
Protocol: (§1) Suspensions of the test compounds were prepared by dissolving one gram of compound in 50 milliliters of acetone in which had been dissolved 0.1 gram (10 percent of the weight of compound) of an alkylphenoxyethoxyethanol surfactant, as an emulsifying or dispersing agent. The resulting solution was mixed into 160 milliliters of water to give roughly 200 milliliters of a suspension containing the compound in finely divided form. The thus prepared stock suspension contained 0.5 percent by weight of compound. The test concentrations employed in the tests described herein below were obtained by diluting the stock suspension with water. The test procedures were as follows:
The test organism was the egg of the two-spotted mite (Tetranychus urticae (Koch)), as obtained from adults reared on Tendergreen bean plants under controlled conditions of 80°±5° F. and 50±5 percent relative humidity. Heavily infested leaves from a stock culture were placed on the primary leaves of two bean plants six to eight inches in height growing in a two-and-a-half inch clay pot. Females were allowed to oviposit for a period of 48 hours and then the leaves of the infested plants were dipped in a solution containing 800 parts of tetraethyl pyrophosphate per million parts of water in order to destroy the reproductory forms and thus prevent further egg laying. […] The plants were allowed to dry thoroughly. The test compounds were formulated by diluting the stock suspension with water to give a suspension containing varying amounts of test compound per million parts of final formulation. The potted plants (one pot per compound) were placed on a revolving turntable and sprayed with 100-110 milliliters of test compound formulation by use of a DeVilbis spray gun set at 40 spig. air pressure. This application which lasted 30 seconds, was sufficient to wet the plants to run-off. As a control, 100-110 milliliters of a water solution containing acetone and emulsifier in the same concentrations as the test compound formulation, but containing no test compound, were also sprayed on plants infested with eggs. The sprayed plants were held at 80°±5° F. and 50±5 percent relative humidity for four days, after which a microscopic examination was made of unhatched (dead) and hatched (living) eggs.
In these tests the pesticidal activity of the compounds against mites and mite eggs were rated as follows:
(§2) Tests were conducted in accordance with the procedures given at pages 32 to 37 supra. The results are expressed in the same manner as used in Table I, except with respect to miticidal activity. For mite adult and mite egg comparison purposes, results are given in parts per million (ppm) required for a 50 percent kill of mites or eggs, respectively.

[2] = system: Soybean; assay: Post-emergent herbicidal test, soybean; type: in vivo; parameters: key: 1: no perceptible injury; 2: intermediate degrees of injury based upon the number and extent to which leaves were injured; 3: intermediate degrees of injury based upon the number and extent to which leaves were injured; 4: intermediate degrees of injury based upon the number and extent to which leaves were injured; 5: the plant was dead; details: 2500 parts per million, after ten days
Protocol: as §1
(§3) Experiments were also conducted to determine the phytotoxicity of representative compositions with respect to healthy fresh plants. Solutions of the compounds were prepared as described above to provide a concentration of 2500 parts per million of the test compound. The test plants were sprayed in accordance with the procedure described above for the Mite Foliage Spray Test so as to deliver approximately 100 milliliters of test solutions to the leaves of each plant tested. The sprayed plants and controls were set aside for approximately one hour to allow the solutions to dry and were then placed in the greenhouse. After ten days the plants were visually inspected to determine the extent of foliage injury. A rating of 1 indicates no perceptible injury; 5 indicates the plant was dead and ratings of 2, 3 and 4 indicate intermediate degrees of injury based upon the number and extent to which leaves were injured.
as §2

[3] = system: Mustard; assay: Preliminary herbicide seed germination test (pre-emergent), mustard; type: in vivo, Brassica pincea var. foliosa (Florida broadleaf); parameters: key: 5: no seedling emerged; 4: few seedlings emerged and/or very severe stunting; 3: moderate reduction in stand and/or moderate stunting; 2: very slight reduction in stand and/or slight stunting; 1: no injury; seedlings appear no different with respect to stand or growth than untreated controls; details: ten to twelve days after application
Protocol: as §1
(§4) The following seeds were used in this test:
Mustard--Brassica pincea var. foliosa (Florida broadleaf)
(§5) Two soil-seed mixtures were prepared as follows:
Each of the above mixtures was rolled separately in 5 gallon containers for approximately one-half hour on ball mill to insure uniform mixing of seeds and soil. For each compound four 3-inch pots were filled with soil to within 11/2 inches of top of pots. To two of these pots were added 70 cc. of Mixture I. To the remaining 2 pots were added 70 cc. of Mixture II. The seed-soil mixture was tamped firmly, and the pots were removed to the green-house and watered lightly. About 2 hours after planting, 25 milliliters of the test formulation were added to one pot containing Mixture I and one pot containing Mixture II. An equal volume of a water solution containing acetone and an emulsifier in the same concentration as the herbicidal mixture but without the candidate herbicide was also added to each of the soil-seed mixtures. These pots are used as check or control units. The test compounds were formulated by diluting the stock suspension with water to obtain the desired concentration of the compound in parts per million of the final formulation. Each compound was tested at the same concentration. […] Ratings were made according to the following designations: […]

[4] = system: Corn; assay: Post-emergent herbicidal test, corn; type: in vivo; parameters: key: 1: no perceptible injury; 2: intermediate degrees of injury based upon the number and extent to which leaves were injured; 3: intermediate degrees of injury based upon the number and extent to which leaves were injured; 4: intermediate degrees of injury based upon the number and extent to which leaves were injured; 5: the plant was dead; details: 2500 parts per million, after ten days
Protocol: as §1, §3, §2

[5] = system: Red root pigweed (Amaranthus); assay: Preliminary herbicide seed germination test (pre-emergent), Amaranthus; type: in vivo, Amaranthus retroflexus; parameters: key: 5: no seedling emerged; 4: few seedlings emerged and/or very severe stunting; 3: moderate reduction in stand and/or moderate stunting; 2: very slight reduction in stand and/or slight stunting; 1: no injury; seedlings appear no different with respect to stand or growth than untreated controls; details: ten to twelve days after application
Protocol: as §1, §4
Red root pigweed--Amaranthus retroflexus
as §5
(§6) Each of the above mixtures was rolled separately in 5 gallon containers for approximately one-half hour on ball mill to insure uniform mixing of seeds and soil. For each compound four 3-inch pots were filled with soil to within 11/2 inches of top of pots. To two of these pots were added 70 cc. of Mixture I. To the remaining 2 pots were added 70 cc. of Mixture II. The seed-soil mixture was tamped firmly, and the pots were removed to the green-house and watered lightly. About 2 hours after planting, 25 milliliters of the test formulation were added to one pot containing Mixture I and one pot containing Mixture II. An equal volume of a water solution containing acetone and an emulsifier in the same concentration as the herbicidal mixture but without the candidate herbicide was also added to each of the soil-seed mixtures. These pots are used as check or control units. The test compounds were formulated by diluting the stock suspension with water to obtain the desired concentration of the compound in parts per million of the final formulation. Each compound was tested at the same concentration. […] Ratings were made according to the following designations:
as §2

[6] = system: Perennial rye grass; assay: Preliminary herbicide seed germination test (pre-emergent), rye grass; type: in vivo, Solium perenne; parameters: key: 5: no seedling emerged; 4: few seedlings emerged and/or very severe stunting; 3: moderate reduction in stand and/or moderate stunting; 2: very slight reduction in stand and/or slight stunting; 1: no injury; seedlings appear no different with respect to stand or growth than untreated controls; details: ten to twelve days after application
Protocol: as §1, §4
Perennial rye grass--Solium perenne
as §5, §6, §2

SMILES	Miticidal, Egg (control rating) [1]	LC50 [1] [µg/mL]	Post-Emergent Herbicidal, Soybean (injury rating) ([2]; Table I)	Post-Emergent Herbicidal, Soybean (injury rating) ([2]; Table II)	Pre-emergent Herbicidal, Mustard (injury rating) ([3]; Table I)	Pre-emergent Herbicidal, Mustard (injury rating) ([3]; Table II)	Post-Emergent Herbicidal, Corn (injury rating) ([4]; Table I)	Post-Emergent Herbicidal, Corn (injury rating) ([4]; Table II)	Pre-emergent Herbicidal, Amaranthus (injury rating) ([5]; Table I)	Pre-emergent Herbicidal, Amaranthus (injury rating) ([5]; Table II)	Pre-emergent Herbicidal, Rye (injury rating) ([6]; Table I)	Pre-emergent Herbicidal, Rye (injury rating) ([6]; Table II)
Cc1ccc(C2C(=O)C3CCCCC3C2=O)c(C)c1 (stereo not drawn) [CH3 CH3 H (CH2)4, 2-(2',4'-dimethylphenyl)-4,5,6,7,8,9-hexahydro-1,3-indandione]	A	15 (≈ 58.5 µM)	5	1	5	5	2	2	5	5	5	5
Cc1ccc(C2C(=O)CCC2=O)c(C)c1 [CH3 CH3 H H H, 2-(2',4'-dimethylphenyl)-1,3-cyclopentanedione]	A	110 (≈ 544 µM)	1	1	3	3	2	2	5	5	5	5
Cc1ccc(C)c(C2C(=O)C3CCCCC3C2=O)c1 (stereo not drawn) [CH3 H CH3 (CH2)4, 2-(2',5'-dimethylphenyl)-4,5,6,7,8,9-hexahydro-1,3-indandione]	A	30 (≈ 117 µM)	1	1	1	1	1	1	1	1	1	1
Cc1ccc(C)c(C2C(=O)CC(C)C2=O)c1 (stereo not drawn) [CH3 H CH3 CH3 H, 2-(2',5'-Dimethylphenyl)-4-methyl-1,3-cyclopentanedione]	B	–	2	–	2	–	3	–	3	–	4	–
Cc1ccc(C)c(C2C(=O)CCC2=O)c1 [CH3 H CH3 H H]	B	–	3	–	2	–	2	–	3	–	4	–
Cc1ccccc1C1C(=O)C2CCCCC2C1=O (stereo not drawn) [CH3 H H (CH2)4, 2-(2'-Methylphenyl)-4,5,6,7,8,9-hexahydro-1,3 indandione]	A	22 (≈ 90.8 µM)	1	1	2	2	2	2	3	3	5	5
Cc1ccccc1C1C(=O)CCC1=O [CH3 H H H H, 2-(2'-methylphenyl)-1,3-cyclopentanedione]	B	500 (≈ 2660 µM)	1	1	1	1	3	3	1	1	5	5
O=C1CCC(=O)C1c1ccc(Cl)cc1Cl [Cl Cl H H H, 2-(2',4'-Dichlorophenyl)-1,3-cyclopentanedione]	B	–	1	–	1	–	1	–	1	–	1	–
